Measured values from patent US20250092065A1, “2-(INDAZOL-5-YL)-6-(PIPERIDIN-4-YL)-1,7-NAPHTHYRIDINE DERIVATIVES AND RELATED COMPOUNDS AS MODULATORS FOR SPLICING NUCLEIC ACIDS AND FOR THE TREATMENT OF PROLIFERATIVE DISEASES” (REMIX THERAPEUTICS INC., priority 2022, published 2025).
Read-outs that look alike come from different tables or passages of the source.

What was measured:
[1] = tested on: MYB; experiment: HiBiT protein abundance assay, MYB (K562 HiBiT knock-in); format: cell-based, human; conditions: HiBiT knock-in K562 cells, 24 hours, top dose 10 μM
Summary of the method: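 Steps: seed HiBiT knock-in K562 cells; add compound in 10-point 3-fold series from 10 μM final; incubate 24 h, 37 °C; add lytic HiBiT reagent, shake 5 min, wait 10 min; read luminescence. Normalize to parental K562 and DMSO controls, fit 4PL, take IC50.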

[2] = tested on: K562 cells; experiment: Cell Titer Glo 2.0 cell viability (toxicity) assay, K562; conditions: 500 cells/well, 72 hours
[3] = tested on: HTT mRNA; experiment: RT-qPCR splicing assay, HTT mRNA canonical (CJ) and alternative (AJ) junction; format: cell-based, human; conditions: Homo sapiens; for AC50: HTT alternative junction mRNA, read-out: HTT AJ (increase in AJ mRNA, AC50)
Summary of the method: (§1)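 A673 or K562 cells treated 24 h at 37 °C with 11-point 3-fold dilutions (top final 10 uM, DMSO ≤0.25%). Lysates analysed by one-step RT-qPCR for canonical (CJ) and alternative-exon (AJ) junctions, normalized to GAPDH, GUSB or PPIA. ΔΔCt vs DMSO, RQ = 2^(−ΔΔCt), expressed as percentage response.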

[4] = tested on: SMN2 mRNA; experiment: RT-qPCR splicing assay, SMN2 mRNA; format: cell-based, human; conditions: Homo sapiens, canonical junction qPCR panel, Table 4; read-out: SMN2 IC50 (decrease in CJ mRNA levels)
Summary of the method: as §1

[5] = HTT canonical junction mRNA, RT-qPCR, read-out: HTT CJ (decrease in CJ mRNA levels, IC50)
[6] = canonical junction qPCR panel, Table 4, read-out: HTT IC50 (decrease in CJ mRNA levels)

Structure (SMILES)	IC50 [1]	Effect of Exemplary Compounds on Cell Viability, K562 [2]	AC50 ([3]; RT-qPCR)	IC50 [3, 5]	IC50 [3, 6]	IC50 [4]
CNC(=O)c1nc(-c2cc3cn(C)nc3c(C)c2O)nc2ccc(N3C[C@@H](C)N[C@@H](C)C3)cc12 [Compound 511, 6-[(3R,5S)-3,5-dimethylpiperazin-1-yl]-2-(6-hydroxy-2,7-dimethylindazol-5-yl)-N-methylquinazoline-4-carboxamide]	< 100 nM	A (A represents <100 nM)	100 to 1000 nM	100 to 1000 nM	100 to 1000 nM	< 100 nM
CC(=O)c1nc(-c2cc3cn(C)nc3c(F)c2O)nc2ccc(N3CCNCC3)cc12 [Compound 513, 1-(2-(7-fluoro-6-hydroxy-2-methyl-2H-indazol-5-yl)-6-(piperazin-1-yl)quinazolin-4-yl)ethan-1-one 2,2,2-trifluoroacetate]	< 100 nM	A (A represents <100 nM)	1000 to 10000 nM	1000 to 10000 nM	1000 to 10000 nM	< 100 nM
Cn1cc2cc(-c3nc(C#N)c4cc(N5CCNCC5)ccc4n3)c(O)c(F)c2n1 [Compound 514, 2-(7-fluoro-6-hydroxy-2-methylindazol-5-yl)-6-(piperazin-1-yl) quinazoline-4-carbonitrile; trifluoroacetic acid]	< 100 nM	A (A represents <100 nM)	1000 to 10000 nM	100 to 1000 nM	100 to 1000 nM	< 100 nM
Cc1c(O)c(-c2ccc3cc(N4CCNCC4)cc(F)c3n2)cc2cn(C)nc12 [Compound 515, 5-[8-fluoro-6-(piperazin-1-yl)quinolin-2-yl]-2,7-dimethylindazol-6-ol]	< 100 nM	A (A represents <100 nM)	< 100 nM	< 100 nM	< 100 nM	< 100 nM
Cn1cc2cc(-c3ccc4cc(N5CCNCC5)cc(F)c4n3)cc(F)c2n1 [Compound 516, 8-fluoro-2-(7-fluoro-2-methylindazol-5-yl)-6-(piperazin-1-yl)quinoline]	< 100 nM	B (B represents 100-1000 nM)	100 to 1000 nM	100 to 1000 nM	100 to 1000 nM	< 100 nM
Cc1cn2cc(-c3ccc4cc(N5CCNCC5)cc(F)c4n3)cc(F)c2n1 [Compound 517, 8-fluoro-2-{8-fluoro-2-methylimidazo[1,2-a]pyridin-6-yl}-6-(piperazin-1-yl)quinoline]	< 100 nM	A (A represents <100 nM)	100 to 1000 nM	100 to 1000 nM	100 to 1000 nM	< 100 nM
Cn1cc2cc(-c3nc(C4CC4)c4cc(N5CCNCC5)ccc4n3)c(O)c(F)c2n1 [Compound 518, 5-[4-cyclopropyl-6-(piperazin-1-yl)quinazolin-2-yl]-7-fluoro-2-methylindazol-6-ol; trifluoroacetic acid]	< 100 nM	B (B represents 100-1000 nM)	1000 to 10000 nM	1000 to 10000 nM	1000 to 10000 nM	< 100 nM
Cc1c(O)c(-c2nc(-c3cncs3)c3cc(N4CCNCC4)ccc3n2)cc2cn(C)nc12 [Compound 519, 2,7-dimethyl-5-[6-(piperazin-1-yl)-4-(1,3-thiazol-5-yl)quinazolin-2-yl]indazol-6-ol]	100 to 1000 nM	B (B represents 100-1000 nM)	> 10000 nM	> 10000 nM	> 10000 nM	< 100 nM
Cc1c(O)c(-c2ncc3cc(N4CCNCC4)ccc3n2)cc2cn(C)nc12 [Compound 520, 2,7-dimethyl-5-[6-(piperazin-1-yl)quinazolin-2-yl]indazol-6-ol]	< 100 nM	B (B represents 100-1000 nM)	100 to 1000 nM	100 to 1000 nM	100 to 1000 nM	< 100 nM
Cc1c(O)c(-c2nc(-c3nnc[nH]3)c3cc(N4CCNCC4)ccc3n2)cc2cn(C)nc12 [Compound 522, 2,7-dimethyl-5-[6-(piperazin-1-yl)-4-(4H-1,2,4-triazol-3-yl)quinazolin-2-yl]indazol-6-ol; bis(trifluoroacetic acid)]	100 to 1000 nM	C (C represents 1000-9999 nM)	> 10000 nM	1000 to 10000 nM	1000 to 10000 nM	< 100 nM
Cc1c(O)c(-c2nc(C(N)=O)c3cc(N4CCNCC4)ccc3n2)cc2cn(C)nc12 [Compound 523, 2-(6-hydroxy-2,7-dimethylindazol-5-yl)-6-(piperazin-1-yl) quinazoline-4-carboxamide]	< 100 nM	A (A represents <100 nM)	100 to 1000 nM	100 to 1000 nM	100 to 1000 nM	< 100 nM
Cc1c(O)c(-c2nc(C(=O)O)c3cc(N4CCNCC4)ccc3n2)cc2cn(C)nc12 [Compound 524, 2-(6-hydroxy-2,7-dimethylindazol-5-yl)-6-(piperazin-1-yl) quinazoline-4-carboxylic acid]	> 10000 nM	D (D represents greater than 10 μM in K562 cells)	> 10000 nM	> 10000 nM	> 10000 nM	1000 to 10000 nM
Cc1c(O)c(-c2ncc3cc(N4C[C@@H](C)N[C@@H](C)C4)ccc3n2)cc2cn(C)nc12 [Compound 525, 5-{6-[(3R,5S)-3,5-dimethylpiperazin-1-yl]quinazolin-2-yl}-2,7-dimethylindazol-6-ol]	< 100 nM	B (B represents 100-1000 nM)	100 to 1000 nM	100 to 1000 nM	100 to 1000 nM	< 100 nM
Cc1c(O)c(-c2ncc3nc(N4C[C@@H](C)N[C@@H](C)C4)ccc3n2)cc2cn(C)nc12 [Compound 526, 5-{6-[(3R,5S)-3,5-dimethylpiperazin-1-yl]pyrido[3,2-d]pyrimidin-2-yl}-2,7-dimethylindazol-6-ol]	100 to 1000 nM	B (B represents 100-1000 nM)	1000 to 10000 nM	100 to 1000 nM	100 to 1000 nM	< 100 nM
CNC(=O)c1nc(-c2cc3cn(C)nc3c(F)c2O)nc2ccc(N3C[C@@H](C)N[C@@H](C)C3)cc12 [Compound 527, 6-[(3R,5S)-3,5-dimethylpiperazin-1-yl]-2-(7-fluoro-6-hydroxy-2-methylindazol-5-yl)-N-methylquinazoline-4-carboxamide]	< 100 nM	A (A represents <100 nM)	100 to 1000 nM	< 100 nM	< 100 nM	< 100 nM
CNC(=O)c1nc(-c2cc3cn(C)nc3c(F)c2O)nc2ccc(N3CCC(N(C)C)CC3)cc12 [Compound 528, 6-[4-(dimethylamino)piperidin-1-yl]-2-(7-fluoro-6-hydroxy-2-methylindazol-5-yl)-N-methylquinazoline-4-carboxamide]	< 100 nM	A (A represents <100 nM)	1000 to 10000 nM	100 to 1000 nM	100 to 1000 nM	< 100 nM
CNC(=O)c1nc(-c2cc3cn(C)nc3c(F)c2O)nc2ccc(N3CCN[C@@H](C)C3)cc12 [Compound 529, 2-(7-fluoro-6-hydroxy-2-methylindazol-5-yl)-N-methyl-6-[(3S)-3-methylpiperazin-1-yl]quinazoline-4-carboxamide]	< 100 nM	A (A represents <100 nM)	100 to 1000 nM	100 to 1000 nM	100 to 1000 nM	< 100 nM
CNC(=O)c1nc(-c2cc3cn(C)nc3cc2O)nc2ccc(N3CCN[C@@H](C)C3)cc12 [Compound 530, 2-(6-hydroxy-2-methylindazol-5-yl)-N-methyl-6-[(3S)-3-methylpiperazin-1-yl]quinazoline-4-carboxamide]	< 100 nM	A (A represents <100 nM)	1000 to 10000 nM	1000 to 10000 nM	1000 to 10000 nM	< 100 nM
CNC(=O)c1nc(-c2cc3cn(C)nc3cc2O)nc2ccc(N3C[C@@H](C)N[C@@H](C)C3)cc12 [Compound 531, 6-[(3R,5S)-3,5-dimethylpiperazin-1-yl]-2-(6-hydroxy-2-methylindazol-5-yl)-N-methylquinazoline-4-carboxamide]	< 100 nM	A (A represents <100 nM)	> 10000 nM	1000 to 10000 nM	1000 to 10000 nM	< 100 nM
CNC(=O)c1nc(-c2cc3cn(C)nc3c(C)c2O)nc2ccc(N3CCNC4(CC4)C3)cc12 [Compound 532, 6-{4,7-diazaspiro[2.5]octan-7-yl}-2-(6-hydroxy-2,7-dimethylindazol-5-yl)-N-methylquinazoline-4-carboxamide]	< 100 nM	B (B represents 100-1000 nM)	100 to 1000 nM	100 to 1000 nM	100 to 1000 nM	< 100 nM
